# Reference: patent US12281118B2, “Nitrogen-containing fused heterocyclic SHP2 inhibitor compound, preparation method, and use” (SHANGHAI RINGENE BIOPHARMA CO., LTD., priority 2018, dated 2025)
# Where two headings read alike, the source gives them in different places.
# Assays:
# CYP2C8 = CYP2C8 (Homo sapiens (Human), UniProt P10632); experiment: biochemical; assay type: in vitro ADME
# SHP2 enzyme = SHP2 enzyme (Homo sapiens (Human), UniProt Q06124); experiment: Inhibitory activity against SHP2 enzyme (Caliper conversion rate); assay type: biochemical; details: read-out: SHP2 Enzyme Inhibition IC50 Value
# SHP2 enzyme, sequence (Q06124 whole entry): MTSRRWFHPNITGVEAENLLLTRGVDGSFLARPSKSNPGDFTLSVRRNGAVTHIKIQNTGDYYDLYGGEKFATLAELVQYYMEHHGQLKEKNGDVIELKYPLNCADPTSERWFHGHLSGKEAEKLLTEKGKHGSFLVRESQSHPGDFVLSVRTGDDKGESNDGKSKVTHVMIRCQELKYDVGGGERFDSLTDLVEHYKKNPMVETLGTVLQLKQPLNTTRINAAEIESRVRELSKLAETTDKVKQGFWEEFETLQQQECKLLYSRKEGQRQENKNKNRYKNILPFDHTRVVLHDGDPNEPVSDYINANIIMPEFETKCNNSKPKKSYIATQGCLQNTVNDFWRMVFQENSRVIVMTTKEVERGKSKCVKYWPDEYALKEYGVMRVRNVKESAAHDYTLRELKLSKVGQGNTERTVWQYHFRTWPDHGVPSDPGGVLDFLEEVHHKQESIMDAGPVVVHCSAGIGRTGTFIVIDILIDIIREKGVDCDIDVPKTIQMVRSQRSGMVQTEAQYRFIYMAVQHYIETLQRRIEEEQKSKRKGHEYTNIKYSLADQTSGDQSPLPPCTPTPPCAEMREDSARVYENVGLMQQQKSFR
# Procedure: (1) Preparing 1×Reaction Buffer according to the BPS Biosciences' Instructions for Use of the SHP2 enzyme. (2) Preparing a compound concentration gradient: Test the test compound at 10 μM under 3× dilution for 10 concentrations, diluting to a 100% dimethyl sulfoxide solution at a 100× final concentration in a 384-well plate, and diluting the compound with Precision 4× for 10 concentrations. Transferring 250 nL of the compound at the 100× final concentration to a target plate OptiPlate-384F using a dispenser Echo 550. […] (3) Preparing the activation peptide solution at a 5× final concentration with the 1×Reaction Buffer, adding 5 μL of the solution to a reaction plate, respectively, and centrifuging at 1000 rpm for 1 min. (4) Preparing an enzyme solution at a 2.5× final concentration with the 1×Reaction Buffer, adding 10 μL of the solution to the reaction plate, respectively, centrifuging at 1000 rpm for 1 min, and incubating at room temperature for 60 min. (5) Preparing a substrate peptide solution at a 2.5× final concentration with the 1×Reaction Buffer, centrifuging at 1000 rpm for 1 min, and incubating at room temperature for 30 min. (6) Adding 30 μL of stop test solution to stop the reaction, centrifuging at 1000 rpm for […], and mixing well by shaking. (7) Reading the conversion rate with a Caliper EZ Reader. (7) Data analysis:
# Wherein: Conversion %/_sample is the reading of a conversion rate of a sample; Conversion %_min: mean of negative control wells, which represents the reading of a conversion rate in absence of enzyme activity wells; Conversion %_max: mean of a ratio of positive control wells, which represents the reading of a conversion rate in absence of compound inhibition wells.
# in vitro = in vitro ADME; details: 1 μM compound
# Procedure: Metabolic stability test: Incubating 150 μL of liver microsomes (final concentration 0.5 mg/mL) containing NADPH (final concentration 1 mM), 1 μM of test compound and a positive control midazolam or a negative control atenolol for metabolic stability, terminating the reaction with acetonitrile containing tinidazole at 0 min, 5 min, 10 min and 30 min, respectively, vortexing for 10 min, centrifuging at 15,000 rmp for 10 min, and injecting 50 μL of supernatant into a 96-well plate. Calculating the metabolic stability of the compounds by determining the relative reduction of a parent drug.
# [1] = tested on: KATO III (gastric cancer); experiment: Cell proliferation inhibition, MTT; assay type: cell-based; details: Homo sapiens
# Procedure: (§1) Incubating cells such as KYSE520 (oesophageal cancer cells), H358 (lung cancer cells), Colo-205 (colorectal cancer cells), MiaPaca-2 (pancreas cancer cells), MOLM 13 (leukemia cells), NCI—H 1666 (lung cancer cells), NCI—H 508 (lung cancer), KATO III (gastric cancer), HEK 293A (normal cells), H3255 (lung cancer), H1975 (lung cancer), PC-9 (lung cancer), A549 (lung cancer), SNU16 (gastric cancer), and H1299 (lung cancer) in a 96-well plate at 100 µl/well and 20,000 cells/mL, and supplementing 10% fetal bovine serum and 1% penicillin/streptomycin sulfate. With 0.5% dimethyl sulfoxide as a blank control, treating the cells in a solution of the test compounds under 3× dilution at an initial concentration of 10 μM in eight gradients, and incubating the plate in an incubator with 5% CO2 for a certain period of time. At the end of the incubation, adding 10 μL of an MTT stock solution (5 mg/mL) to each well. Incubating the plates at 37° C. for 4 hours, and then removing the culture medium. Adding the dimethyl sulfoxide (100 μL) to each well, and then shaking well. Measuring the absorbance of a formazan product at 570 nm on a Thermo Scientific Varioskan Flash multi-mode reader. Fitting dose-response data to a three-parameter nonlinear regression model using GraphPad Prism 6.0 software to obtain IC50 values.
# MOLM 13 (leukemia cells) = experiment: Cell proliferation inhibition, MTT; assay type: cell-based; details: Homo sapiens
# Procedure: as §1
# NCI-H 508 (lung cancer) = experiment: Cell proliferation inhibition, MTT; assay type: cell-based; details: Homo sapiens, NCI-H508
# Procedure: as §1
# [2] = tested on: KYSE520 (oesophageal cancer cells); experiment: Cell proliferation inhibition, MTT; assay type: cell-based; details: Homo sapiens, KYSE-520
# Procedure: as §1
# H358 (lung cancer cells) = experiment: Cell proliferation inhibition, MTT; assay type: cell-based; details: Homo sapiens, NCI-H358
# Procedure: as §1
# [3] = tested on: NCI-H1666 (lung cancer cells); experiment: Cell proliferation inhibition, MTT; assay type: cell-based; details: Homo sapiens
# Procedure: as §1
# SNU16 (gastric cancer) = experiment: Cell proliferation inhibition, MTT; assay type: cell-based; details: Homo sapiens; SNU 16
# Procedure: as §1
# [4] = In vivo pharmacokinetic parameters; set-up: AUC: unit not given here; details: plasma, po; for AUC: read-out: Area under the curve AUC; for bioavailability: read-out: Bioavailability F; for half-life: read-out: Half-life T1/2 (converted); for Cmax: read-out: Maximum plasma concentration Cmax
# Procedure: Dividing 6 SPF-grade laboratory animals into two groups, and preparing the test compound to a suitable solution or suspension; intravenously administering animals in one group, and orally administering animals in the other group. Collecting blood via jugular vein puncture at approximately 0.2 mL/time point for each sample, anticoagulating with sodium heparin, wherein the time points for blood collection is as follows: pre-dose, and 5, 15 and 30 min, and 1, 2, 4, 6, 8, and 24 h post-dose; placing the collected blood samples on ice, separating plasma by centrifugation (centrifugation conditions: 8,000 rpm, 6 min, 2-8° C.), and storing the collected plasma at −80° C. before analysis. Analyzing plasma samples using LC-MS/MS.
# Based on the plasma concentration data of the drug, pharmacokinetic parameters such as AUC0-t, AUC0-∞, MRT0-∞, Cmax, Tmax, T1/2 and Vd of a test sample, as well as mean and standard deviations thereof are calculated using a pharmacokinetic calculation software WinNonlin 5.2 noncompartmental model. In addition, the bioavailability (F) is calculated by the following formula.
# For samples with concentrations below the lower limit of quantification, samples taken before reaching Cmax should be calculated as zero for calculations of the pharmacokinetic parameter, and samples taken at sampling points after reaching Cmax should be calculated as non-quantifiable (BLQ) (specific results are shown in Table 3).
# [5] = monkey, monkeys liver microsomes
# CYP2C8, sequence (P10632 whole entry): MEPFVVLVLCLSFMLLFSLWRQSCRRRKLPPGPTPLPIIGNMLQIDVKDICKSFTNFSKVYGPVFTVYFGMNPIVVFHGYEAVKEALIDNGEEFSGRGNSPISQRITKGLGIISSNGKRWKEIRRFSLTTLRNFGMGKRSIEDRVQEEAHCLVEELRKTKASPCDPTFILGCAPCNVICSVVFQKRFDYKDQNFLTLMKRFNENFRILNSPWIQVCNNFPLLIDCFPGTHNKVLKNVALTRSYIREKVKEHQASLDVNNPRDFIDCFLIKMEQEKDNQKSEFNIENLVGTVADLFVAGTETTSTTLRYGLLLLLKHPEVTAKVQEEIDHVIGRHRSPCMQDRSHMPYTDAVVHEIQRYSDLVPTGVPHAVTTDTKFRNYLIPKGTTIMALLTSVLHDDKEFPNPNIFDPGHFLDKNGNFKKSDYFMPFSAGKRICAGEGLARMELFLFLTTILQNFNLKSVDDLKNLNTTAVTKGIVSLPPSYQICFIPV
Structure (SMILES),IC50 (CYP2C8) [nM],IC50 (SHP2 enzyme) [nM],"half-life at 1 μM (in vitro; dog, dogs liver microsomes) [h]",half-life at 1 μM (in vitro; human liver microsomes) [h],half-life at 1 μM (in vitro; [5]) [h],"half-life at 1 μM (in vitro; mouse, mice liver microsomes) [h]","half-life at 1 μM (in vitro; rat, rats liver microsomes) [h]",IC50 [1] [nM],IC50 (MOLM 13 (leukemia cells)) [nM],IC50 (NCI-H 508 (lung cancer)) [nM],IC50 [2] [nM],IC50 (H358 (lung cancer cells)) [nM],IC50 [3] [nM],IC50 (SNU16 (gastric cancer)) [nM],"AUC ([4]; Mouse, 5 mg/kg)","bioavailability ([4]; Mouse, 5 mg/kg) [%]","half-life ([4]; Mouse, 5 mg/kg) [h]","Cmax ([4]; Mouse, 5 mg/kg) [nM]",also measured
"Nc1nccc(Sc2c(N)nc(N3CCC4(CC3)Cc3ccccc3[C@H]4N)n3ccnc23)c1Cl [Example 4, (S)-1′-(7-amino-8-((2-amino-3-chloropyridin-4-yl)thio)imidazo [1,2-c]pyrimidin-5-yl)-1,3-dihydrospiro [indene-2,4′-piperidine]-1-amine]",> 25000,1.9,> 1,> 1,> 1,> 1,> 1,< 1000,< 100,< 100,< 100,< 100,< 100,< 1000,557,20,10.9,79,
"Cc1nc(N2CCC3(CC2)Cc2ccccc2[C@H]3N)n2ccnc2c1Sc1ccnc(N)c1Cl [Example 1, (S)-1′-(8-((2-amino-3-chloropyridin-4-yl)thio)-7-methylimidazo [1,2-c]pyrimidin-5-yl)-1,3-dihydrospiro [indene-2,4′-piperidine]-1-amine]",> 25000,4.4,> 1,> 1,> 1,> 1,> 1,< 1000,< 100,< 100,< 100,< 100,< 100,< 1000,5840,61,11.8,306,"AUC ([4]; Beagle Dog, 5 mg/kg): 18200; bioavailability ([4]; Beagle Dog, 5 mg/kg): 162%; half-life ([4]; Beagle Dog, 5 mg/kg): 10.9 h; Cmax ([4]; Beagle Dog, 5 mg/kg): 907 nM; bioavailability ([4]; Rat, 5 g/kg (so in the source)): 64%; half-life ([4]; Rat, 5 g/kg (so in the source)): 22.3 h; Cmax ([4]; Rat, 5 g/kg (so in the source)): 211 nM; AUC ([4]; Rat, (so in the source)): 3540"
